The values that follow come from ChEMBL document CHEMBL3244052, “Conformational analogues of dopamine. Synthesis and pharmacological activity of (E)- and (Z)-2-(3,4-dihydroxyphenyl)cyclopropylamine hydrochlorides” (J Med Chem, 1979).

Each structure is given as a SMILES string. Active and inactive are the calls of the source. The rule behind the calls is not given here.

Experiment [1] relates to Canis familiaris. The experiment in a line: Dopaminergic activity in mongrel dog assessed as renal vasodilation up to 4.96 x 10^-6 M administered to renal artery. The experiment is classed as functional, organism-based. Conditions: Canis lupus familiaris.
In experiment [2] the test system is Canis familiaris. The experiment in a line: Cardiac stimulant activity in iv dosed dog assessed as dose producing 50% increase in contractile force. In kind it is functional, Canis lupus familiaris.
Experiment [3] can be described thus: Agonist activity at alpha-adrenergic receptor in rabbit thoracic aorta assessed as […] contraction. In kind it is tissue-based, Oryctolagus cuniculus.
For experiment [4], the system named is Canis familiaris. The experiment in a line: Cardiac stimulant activity in iv dosed dog assessed as increase in heart rate. The experiment is classed as functional, Canis lupus familiaris.

Regarding `Cl.N[C@@H]1C[C@H]1c1ccc(O)c(O)c1` (racemic), the ED50 entry in experiment [1] is “inactive”. The Activity in experiment [2] is recorded as 19.5 ×10⁻⁸ mol/kg; in experiment [4], -2 bpm. Besides, the EC50 in experiment [3] is reported as 94 ×10⁻⁷ mol.
On the same counts, the results for `Cl.N[C@@H]1C[C@@H]1c1ccc(O)c(O)c1` (racemic) are “inactive”, 312.3 ×10⁻⁸ mol/kg, 32 bpm and 457 ×10⁻⁷ mol.
On to `Cl.NCCc1ccc(O)c(O)c1` [DOPAMINE HYDROCHLORIDE], for which the values for the Activity in experiment [2] and in experiment [4] were 4.8 ×10⁻⁸ mol/kg and 5 bpm, respectively. Besides, in experiment [3], the EC50 amounted to 102 ×10⁻⁷ mol.
For `CC(C)NCC(O)c1ccc(O)c(O)c1.Cl` (centres undefined) [ISOPROTERENOL HYDROCHLORIDE], the Activity was 0.014 ×10⁻⁸ mol/kg in experiment [2] and 16 bpm in experiment [4].
Take `CNC[C@H](O)c1cccc(O)c1.Cl` [PHENYLEPHRINE HYDROCHLORIDE]: in experiment [3], the EC50 is 2.3 ×10⁻⁷ mol.
